Test results: patent US20050272606A1, “Plant life control composition” (priority 1999, published 2005)

Assays:
Assay in all cases: POST trolley belt sprayer test (Example 3)
Details in all cases: 600 g/ha, 14 DAT
[1] = system: Broadleaf Weeds (Avg Dicot); type: in vivo
Description: (§1) All POST crops and weeds plants were grown into separate square pots which measured 10×10 cm. The soil used was amended with Redi-Eartho Plug and Seedling Mix in a one to one ratio. Ten to twenty seeds per small seeded species were planted per pot. Five to ten seeds were planted with large seeded species. Seeds were sown 0.5 inches deep. Generally, POST plants were 7 to 21 days old (from planting) when sprayed. Grasses were in the 2-4 leaf stage and broadleaf weeds were in the 1-2 true leaf stage.
(§2) The spray volume was 50 gallons per acre (468 I/Ha). Rates of application (grams per hectare) varied depending on the concentration of chemical within each individual spray solution. Technical samples were dissolved in acetone. Formulations are suspended in water. All applications were made using a trolley belt sprayer. The test plants were placed on the belt inside the spray hood. Then the spray nozzle which is attached to the trolley, moves mechanically over the top of the plants. The spray nozzle delivers a flat fan spray pattern and is a typical nozzle used in herbicide field applications. The belt carries the plants out of the spray hood and into a drying chamber.
(§3) After spray application, the test plants were placed in a vented cabinet until dry, then placed in the greenhouse. […] The trolley sprayer settings were as follows (50 (GPA) Gallons Per Acre or (468 L/Ha): […]

[2] = system: Grassy Weeds (Avg Monocot); type: in vivo
Description: as §1, §2, §3

[3] = system: BID (Bidens); type: in vivo, Bidens pilosa
Description: as §1, §2, §3

[4] = system: CKL (Cocklebur); type: in vivo, Xanthium pensylvanicum
Description: as §1, §2, §3

[5] = system: MG (Morningglory); type: in vivo, Ipomoea hederacea
Description: as §1, §2, §3

[6] = system: NS (Nightshade); type: in vivo, Solanum nigrum
Description: as §1, §2, §3

[7] = system: PIG (Pigweed); type: in vivo, Amaranthus retroflexus
Description: as §1, §2, §3

[8] = system: SMT (Smartweed); type: in vivo, Polygonum lapathifolium
Description: as §1, §2, §3

[9] = system: TEA (Teaweed); type: in vivo, Sida spinosa
Description: as §1, §2, §3

[10] = system: VEL (Velvetleaf); type: in vivo, Abutilon theophrasti
Description: as §1, §2, §3

[11] = system: BP (Blue panicum); type: in vivo, Panicum antidotale
Description: as §1, §2, §3

[12] = system: BYG (Barnyardgrass); type: in vivo, Echinochloa crus-galli
Description: as §1, §2, §3

[13] = system: CRB (Crabgrass); type: in vivo, Digitaria sanguinalis
Description: as §1, §2, §3

[14] = system: FOX (Foxtail); type: in vivo, Setaria viridis
Description: as §1, §2, §3

[15] = system: NUT (Nutsedge); type: in vivo, Cyperus esculentus
Description: as §1, §2, §3

[16] = system: RYE (Ryegrass); type: in vivo, Lolium multiflorum
Description: as §1, §2, §3

[17] = system: SIG (Signalgrass); type: in vivo, Brachiaria platyphylla
Description: as §1, §2, §3

[18] = system: SPR (Sprangletop); type: in vivo, Leptochloa dubia
Description: as §1, §2, §3

[19] = system: CN (Corn); type: in vivo, Zea mays
Description: as §1, §2, §3

[20] = system: COT (Cotton); type: in vivo, Gossypium hirsutum
Description: as §1, §2, §3

[21] = system: RI (Rice); type: in vivo, Oryza sativa
Description: as §1, §2, §3

[22] = system: SOY (Soybean); type: in vivo, Glycine max
Description: as §1, §2, §3

[23] = system: WHT (Wheat); type: in vivo, Triticum spp.
Description: as §1, §2, §3

## C[n+]1ccc(-c2cc[n+](C)cc2)cc1 [Paraquat]
[1]
  % POST Control of Broadleaf Weeds, Avg Dicot: 98%
[2]
  % POST Control of Grassy Weeds, Avg Monocot: 93%
[3]
  % POST Control of Broadleaf Weeds: 100%
[4]
  % POST Control of Broadleaf Weeds: 100%
[5]
  % POST Control of Broadleaf Weeds: 100%
[6]
  % POST Control of Broadleaf Weeds: 100%
[7]
  % POST Control of Broadleaf Weeds: 100%
[8]
  % POST Control of Broadleaf Weeds: 100%
[9]
  % POST Control of Broadleaf Weeds: 85%
[10]
  % POST Control of Broadleaf Weeds: 100%
[11]
  % POST Control of Grassy Weeds: 100%
[12]
  % POST Control of Grassy Weeds: 95%
[13]
  % POST Control of Grassy Weeds: 90%
[14]
  % POST Control of Grassy Weeds: 90%
[15]
  % POST Control of Grassy Weeds: 85%
[16]
  % POST Control of Grassy Weeds: 100%
[17]
  % POST Control of Grassy Weeds: 85%
[18]
  % POST Control of Grassy Weeds: 100%
[19]
  % Crop Injury: 85%
[20]
  % Crop Injury: 100%
[21]
  % Crop Injury: 100%
[22]
  % Crop Injury: 100%
[23]
  % Crop Injury: 100%
